Assay results taken from patent US20180200279A1, “INHIBITION OF HSV-1-ASSOCIATED CORNEAL NEOVASCULARIZATION USING INHIBITORS OF CYCLIN-DEPENDENT KINASE 9” (XAVIER UNIVERSITY OF LOUISIANA, priority 2014, published 2018).

What was measured:
[1] = tested on: HSV-1 17syn+ induced corneal neovascularization; assay: HSV-1 corneal neovascularization mouse model, slit-lamp examination score; type: in vivo, Balb/c mice; conditions: day 25 post infection; drops 4 times daily for 14 days; 1% TFT, 0.01% flavopiridol, 0.1% DRB; n=10
Procedure: Corneal neovascularization was determined in a masked fashion by slit lamp analysis on days 2, 4, 7, 9, 11, 14, 18, and 25 post-infection (PI) with 5×10^5 PFU/eye of HSV-1 17syn+ using the formula A=(C×0.4×L×n)/2 where C=clock hours of neovascularization; 30° arc is 1 (360° circle with a total of 12); L is the length of the longest neovessel, and A is the area of neovascularization.
All experimental procedures were performed in accordance with the ARVO Resolution for the Use of Animals in Ophthalmic and Vision Research and were approved by the Xavier University Animal Care and Use Committee. Female 20 g Balb/c mice were obtained from Charles River Laboratories. Mice were allowed to equilibrate to their surroundings for 2 weeks and then were anesthetized by intramuscular administration of xylazine (6.6 mg/kg of body weight) and ketamine (100 mg/kg of body weight). The corneas were mildly scarified in a 2×2 cross-hatch pattern and each cornea was inoculated with 5×10^5 PFU of strain HSV 17syn+. […] Average neovascularization/eye was scored using the formula A=(C×0.4×L×π)/2 where C=clock hours of neovascularization; 30° arc is 1 (360° circle with a total of 12); L is the length of the longest neovessel, and A is the area of neovascularization. Students scored (by eye) the animals on the days indicated in a masked fashion using the slit-lamp, and images representative of each group were taken. Clinical scores based on epiphora, inflammation and discharge were calculated where 0=no manifestations, +1=slight manifestations, +2=moderate manifestations, and +3=severe manifestations. […] Ex ovo chick embryo chorioallantoic membrane collagen angiogenesis assays were performed using methods as previously described (Deryugina E I and Quigley J P. Chapter 2. Chick embryo chorioallantoic membrane models to quantify angiogenesis induced by inflammatory and tumor cells or purified effector molecules. Methods Enzymol. 444:21-41. 2008). […]
This was assessed with the dose and frequency that was used in the chemotherapeutic study of HSV-1 corneal neovascularization. […]

HUVEC [2] = assay: Endothelial cell Matrigel transwell invasion assay; type: cell-based, human; conditions: 25 ng/mL VEGF and bFGF
Procedure: After 12-16 hours, tubules were counted at low magnification and percentage of inhibition was expressed using VEGF control wells as 100%.
Migration/invasion assays were performed using 24-well, 8-μm pore size BD Biocoat Matrigel migration chambers according to the manufacturer's instructions (BD Biosciences, San Jose, Calif.). […] Cells were allowed to migrate for 16 hours at 37° C. Following incubation, cotton swabs were used to remove the cells on the top surface of the membrane, and cells on the bottom side of the membrane were fixed with 4% formaldehyde for 30 min, washed 3-5 times with PBS, and then stained with 10 μM Calcein AM (migration) or 10 μM Celltracker green-labeled (invasion). Migrating or invading cells from three repeats in two independent experiments were then counted using an inverted microscope. Data are expressed as mean percent migration and mean percent invading cells compared with untreated cells±SEM.
In addition to migration, new blood vessel formation requires that endothelial cells invade through extracellular matrix (ECM) surrounding the existing vasculature. Inhibition of invasion therefore inhibits angiogenesis. […] Celltracker green-labeled HUVEC that successfully degraded the Matrigel and crossed into the lower chamber containing 25 ng/mL VEGF and bFGF in the presence or absence of FP were counted and expressed as a percent of untreated control cells (FIG. 2B).

[3] = tested on: corneal neovascularization due to alkali burn; assay: Corneal neovascularization due to chemical (NaOH) burn in mice; type: in vivo, Balb C mice; conditions: 0.01% FP 5× daily; four days post injury; 0.15N NaOH for 15 seconds
Procedure: Following chemical treatment of mouse eyes with 0.15N NaOH, control and treated eyes were scored for neovascularization using the formula A=(C×0.4×L×pi)/2; where C=clock hours of neovascularization; 30° arc is 1 (360° L is the length of the longest neovessel, and A is the area of neovascularization. Animals were scored using a slit-lamp microscope, and images representative of each group were taken. One day post injury, flavopirodol reduced neovascularization to the level observed in undamaged and in damaged but prednisone-treated eyes.
To determine whether FP would reduce corneal neovascularization due to chemical injury in a mouse model system, female Balb C mice (7 per group) were treated in their right eyes with 0.15N NaOH for 15 seconds and the left eye was not treated with NaOH. […] Neovascularization was scored using the formula A=(C×0.4×L×pi)/2; where C=clock hours of neovascularization; 30° arc is 1 (360° L is the length of the longest neovessel, and A is the area of neovascularization. Animals were scored in a masked fashion using a slit-lamp microscope, and images representative of each group were taken. The longest possible length of a neovessel is 1.6 mm and the greatest possible arc is 12/12 hours.

HUVEC [4] = assay: Global transcription, BrU incorporation into RNA by flow cytometry; type: cell-based, human; conditions: serum-starved, PMA-treated HUVEC
Procedure: Vein endothelial cells (VEC) were activated with phorbol myristate acetate (PMA) and incubated with membrane-permeable 5-bromouridine (BrU) that incorporates into RNA transcribed during the incubation period. A commercially available antibody against 5-bromo-deoxy-uridine was then used to quantify BrU-containing RNA. Cells were analyzed by immunofluorescence staining (not shown) and by flow cytometry for the presence of incorporated BrU to quantify the level of global transcription. […] Additional controls include no antibody and no BrU.
To determine whether FP blocked transcription globally at concentrations at which it reduces angiogenesis in vitro, HUVEC were activated with phorbol myristate acetate (PMA) and incubated with membrane-permeable 5-bromouridine (BrU) that incorporates into RNA transcribed during the incubation period. A commercially available antibody against 5-bromo-deoxy-uridine was then used to quantify BrU-containing RNA. Cells were analyzed by immunofluorescence staining (not shown) and by flow cytometry for the presence of incorporated BrU to quantify the level of global transcription.
Additional controls include no antibody (-Ab) and no BrU (-BrU) (FIG. 5A).

[5] = Ocular safety and tolerability of the formulation, mouse eyes; type: in vivo; conditions: dose and frequency of the HSV-1 corneal neovascularization study
Procedure: This was assessed with the dose and frequency that was used in the chemotherapeutic study of HSV-1 corneal neovascularization. FIG. 1A presents the results of slit-lamp examination (SLE) scores of the corneas of the four treatment groups beginning on post-inoculation day 2 and continuing to 25 days following infection.

CN1CC[C@H](c2c(O)cc(O)c3c(=O)cc(-c4ccccc4Cl)oc23)[C@H](O)C1 [flavopiridol]
slit-lamp examination (SLE) score of corneal neovascularization [1]: 0.039±0.176 | invading cells as percent of untreated control (HUVEC [2]; 50 nM flavopiridol): 67.08%±6.50 | invading cells as percent of untreated control (HUVEC [2]; 100 nM flavopiridol): 59.74%±6.98 | invading cells as percent of untreated control (HUVEC [2]; 200 nM flavopiridol): 32.64%±8.58 | corneal neovascularization after alkali burn (slit-lamp area score) [3]: reduced neovascularization due to alkali burn to the level observed in undamaged and in damaged but prednisone-treated eyes | BrU incorporation into RNA (total cellular transcription) (HUVEC [4]; 50 nM-300 nM FP): only slightly reduced | BrU incorporation into RNA (total cellular transcription) (HUVEC [4]; 600 nM-1 μM FP): significantly (p<0.05 compared with untreated cells) reduced BrU incorporation into RNA | safety and tolerability of the formulation in the eye [5]: safe and well-tolerated
